pIC50: −log10 of the molar value.
tested on: T47D (PIK3CA H1047R) cells; assay: pS473 AKT assay with 2.5% FBS, T47D cells; assay type: cell-based; conditions: Homo sapiens, pSer473 AKT, DMEM with 2.5% FBS, 2 h treatment, read-out: T47D_IC50
Procedure, shortened: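 In-cell chemiluminescent ELISA of AKT Ser473 phosphorylation, using anti-pSer473 primary and HRP secondary antibodies on fixed cells. T47D (PIK3CA H1047R) cells had 2 h of compound treatment in DMEM containing 2.5% FBS; IC50 derived from dose-response.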

pIC50 | Structure (SMILES)
> 6.00 | COc1cc(-c2nc(Cl)ccc2NC(C)c2cc(C)cc3c(=O)n(C)c4c(cnn4CCO)c23)ccn1 (centres unmarked) [Example 256, 9-[1-[[6-chloro-2-(2-methoxy-4-pyridyl)-3-pyridyl]amino]ethyl]-3-(2-hydroxyethyl)-4,7-dimethyl-pyrazolo[3,4-c]isoquinolin-5-one]
> 6.00 | Cc1cc(C(C)Nc2ccc(Cl)nc2C2CCN(C)CC2)c2c(c1)c(=O)n(C)c1c2cnn1CCO (centres unmarked) [Example 257, 9-[1-[[6-Chloro-2-(1-methyl-4-piperidyl)-3-pyridyl]amino]ethyl]-3-(2-hydroxyethyl)-4,7-dimethyl-pyrazolo[3,4-c]isoquinolin-5-one]
> 6.00 | CC(=O)N1CCC(c2nc(Cl)ccc2NC(C)c2cc(C)cc3c(=O)n(C)c4c(cnn4CCO)c23)CC1 (centres unmarked) [Example 258, 9-[1-[[2-(1-Acetyl-4-piperidyl)-6-chloro-3-pyridyl]amino]ethyl]-3-(2-hydroxyethyl)-4,7-dimethyl-pyrazolo[3,4-c]isoquinolin-5-one]
> 6.00 | Cc1cc(C(C)Nc2ccc(Cl)nc2-c2ncn(C)n2)c2c(c1)c(=O)n(CC(F)F)c1c2cnn1CCO (centres unmarked) [Example 259, 9-[1-[[6-Chloro-2-(1-methyl-1,2,4-triazol-3-yl)-3-pyridyl]amino]ethyl]-4-(2,2-difluoroethyl)-3-(2-hydroxyethyl)-7-methyl-pyrazolo[3,4-c]isoquinolin-5-one]
> 6.00 | CNC(=O)c1ccc(-c2nc(Cl)ccc2NC(C)c2cc(C)cc3c(=O)n(CC(F)F)c4c(cnn4CCO)c23)cn1 (centres unmarked) [Example 260, 5-[6-Chloro-3-[1-[4-(2,2-difluoroethyl)-3-(2-hydroxyethyl)-7-methyl-5-oxo-pyrazolo[3,4-c]isoquinolin-9-yl]ethylamino]-2-pyridyl]-N-methyl-pyridine-2-carboxamide]
> 6.00 | CCn1c(=O)c2cc(C)cc(C(C)Nc3ccc(Cl)nc3-c3ncn(C)n3)c2c2cnn(CCO)c21 (centres unmarked) [Example 261, 9-[1-[[6-Chloro-2-(1-methyl-1,2,4-triazol-3-yl)-3-pyridyl]amino]ethyl]-4-ethyl-3-(2-hydroxyethyl)-7-methyl-pyrazolo[3,4-c]isoquinolin-5-one]
> 6.00 | CCn1c(=O)c2cc(C)cc(C(C)Nc3ccc(Cl)nc3N3CCOCC3)c2c2cnn(CCO)c21 (centres unmarked) [Example 262, 9-[1-[(6-Chloro-2-morpholino-3-pyridyl)amino]ethyl]-4-ethyl-3-(2-hydroxyethyl)-7-methyl-pyrazolo[3,4-c]isoquinolin-5-one]
> 6.00 | Cc1cc(C(C)Nc2ccc(Cl)nc2-c2cnn(C)c2)c2c(c1)c(=O)n(C)c1c2cnn1CCN1CCOCC1 (centres unmarked) [Example 263, 9-[1-[[6-Chloro-2-(1-methylpyrazol-4-yl)-3-pyridyl]amino]ethyl]-4,7-dimethyl-3-(2-morpholinoethyl)pyrazolo[3,4-c]isoquinolin-5-one]
> 6.00 | Cc1cc(C(C)Nc2ccc(Cl)nc2-c2ccncc2F)c2c(c1)c(=O)n(C)c1c2cnn1CCN1CCOCC1 (centres unmarked) [Example 264, 9-(1-((6-chloro-3′-fluoro-[2,4′-bipyridin]-3-yl)amino)ethyl)-4,7-dimethyl-3-(2-morpholinoethyl)-3,4-dihydro-5H-pyrazolo[3,4-c]isoquinolin-5-one]
> 6.00 | Cc1cc(C(C)Nc2ccc(Cl)nc2-c2ccncc2F)c2c(c1)c(=O)n(C)c1c2cnn1CCN1CCN(C)CC1 (centres unmarked) [Example 265, 9-(1-((6-chloro-3′-fluoro-[2,4′-bipyridin]-3-yl)amino)ethyl)-4,7-dimethyl-3-(2-(4-methylpiperazin-1-yl)ethyl)-3,4-dihydro-5H-pyrazolo[3,4-c]isoquinolin-5-one]
> 6.00 | CNC(=O)c1ccc(-c2nc(Cl)ccc2NC(C)c2cc(C)cc3c(=O)n(C)c4c(cnn4CCN4CCOCC4)c23)cc1F (centres unmarked) [Example 266, 4-(6-chloro-3-((1-(4,7-dimethyl-3-(2-morpholinoethyl)-5-oxo-4,5-dihydro-3H-pyrazolo[3,4-c]isoquinolin-9-yl)ethyl)amino)pyridin-2-yl)-2-fluoro-N-methylbenzamide]
> 6.00 | CNC(=O)c1ccc(-c2nc(Cl)ccc2NC(C)c2cc(C)cc3c(=O)n(C)c4c(cnn4CCN4CCN(C)CC4)c23)cc1F (centres unmarked) [Example 267, 4-(6-chloro-3-((1-(4,7-dimethyl-3-(2-(4-methylpiperazin-1-yl)ethyl)-5-oxo-4,5-dihydro-3H-pyrazolo[3,4-c]isoquinolin-9-yl)ethyl)amino)pyridin-2-yl)-2-fluoro-N-methylbenzamide]
> 6.00 | Cc1cc(C(C)Nc2ccc(Cl)nc2-c2ncn(C)n2)c2c(c1)c(=O)n(CC(F)F)c1c2cnn1CCN1CCn2ncnc2C1 (centres unmarked) [Example 268, 9-(1-((6-chloro-2-(1-methyl-1H-1,2,4-triazol-3-yl)pyridin-3-yl)amino)ethyl)-4-(2,2-difluoroethyl)-3-(2-(5,6-dihydro-[1,2,4]triazolo[1,5-a]pyrazin-7(8H)-yl)ethyl)-7-methyl-3,4-dihydro-5H-pyrazolo[3,4-c]isoquinolin-5-one]
> 6.00 | CCn1c(=O)c2cc(C)cc(C(C)Nc3ccc(Cl)nc3-c3ncn(C)n3)c2c2cnn(-c3ccccn3)c21 (centres unmarked) [Example 269, 9-[1-[[6-Chloro-2-(1-methyl-1,2,4-triazol-3-yl)-3-pyridyl]amino]ethyl]-4-ethyl-7-methyl-3-(2-pyridyl)pyrazolo[3,4-c]isoquinolin-5-one]
> 6.00 | CCn1c(=O)c2cc(C)cc(C(C)Nc3ccc(Cl)nc3N3CCOCC3)c2c2cnn(-c3ccccn3)c21 (centres unmarked) [Example 270, 9-(1-((6-chloro-2-morpholinopyridin-3-yl)amino)ethyl)-4-ethyl-7-methyl-3-(pyridin-2-yl)-3,4-dihydro-5H-pyrazolo[3,4-c]isoquinolin-5-one]
> 6.00 | CCn1c(=O)c2cc(C)cc(C(C)Nc3ccc(Cl)nc3-c3ccc(C(=O)NC)nc3)c2c2cnn(-c3ccccn3)c21 (centres unmarked) [Example 271, 6-chloro-3-((1-(4-ethyl-7-methyl-5-oxo-3-(pyridin-2-yl)-4,5-dihydro-3H-pyrazolo[3,4-c]isoquinolin-9-yl)ethyl)amino)-N-methyl-[2,3′-bipyridine]-6′-carboxamide]
> 6.00 | Cc1cc(C(C)Nc2ccc(Cl)nc2-c2noc(=O)[nH]2)c2c(c1)c(=O)n(C)c1c2cnn1-c1ccccn1 (centres unmarked) [Example 272, 3-(6-chloro-3-((1-(4,7-dimethyl-5-oxo-3-(pyridin-2-yl)-4,5-dihydro-3H-pyrazolo[3,4-c]isoquinolin-9-yl)ethyl)amino)pyridin-2-yl)-1,2,4-oxadiazol-5(4H)-one]
> 6.00 | Cc1cc(C(C)Nc2ccc(Cl)nc2-c2cnn(C)c2)c2c(c1)c(=O)n(C)c1c2cnn1-c1ccccn1 (centres unmarked) [Example 273, 9-(1-((6-chloro-2-(1-methyl-1H-pyrazol-4-yl)pyridin-3-yl)amino)ethyl)-4,7-dimethyl-3-(pyridin-2-yl)-3,4-dihydro-5H-pyrazolo[3,4-c]isoquinolin-5-one]
> 6.00 | CCn1c(=O)c2cc(C)cc(C(C)Nc3ccc(Cl)nc3-c3ncn(C)n3)c2c2cnn(-c3cccnc3)c21 (centres unmarked) [Example 274, 9-[1-[[6-Chloro-2-(1-methyl-1,2,4-triazol-3-yl)-3-pyridyl]amino]ethyl]-4-ethyl-7-methyl-3-(3-pyridyl)pyrazolo[3,4-c]isoquinolin-5-one]
> 6.00 | Cc1cc(C(C)Nc2ccc(Cl)nc2-c2cnn(C)c2)c2c(c1)c(=O)n(C)c1c2cnn1Cc1ccccn1 (centres unmarked) [Example 275, 9-[1-[[6-Chloro-2-(1-methylpyrazol-4-yl)-3-pyridyl]amino]ethyl]-4,7-dimethyl-3-(2-pyridylmethyl)pyrazolo[3,4-c]isoquinolin-5-one]
> 6.00 | Cc1cc(C(C)Nc2ccc(Cl)nc2-c2noc(=O)[nH]2)c2c(c1)c(=O)n(C)c1c2cnn1Cc1ccccn1 (centres unmarked) [Example 276, 3-(6-Chloro-3-((1-(4,7-dimethyl-5-oxo-3-(pyridin-2-ylmethyl)-4,5-dihydro-3H-pyrazolo[3,4-c]isoquinolin-9-yl)ethyl)amino)pyridin-2-yl)-1,2,4-oxadiazol-5(4H)-one]
> 6.00 | Cc1cc(C(C)Nc2ccc(Cl)nc2-c2ncn(C)n2)c2c(c1)c(=O)n(C)c1c2cnn1C1CCCN(C)C1 (centres unmarked) [Example 277, 9-[1-[[6-Chloro-2-(1-methyl-1,2,4-triazol-3-yl)-3-pyridyl]amino]ethyl]-4,7-dimethyl-3-(1-methyl-3-piperidyl)pyrazolo[3,4-c]isoquinolin-5-one]
> 6.00 | Cc1cc(C(C)Nc2ccc(Cl)nc2-c2ncn(C)n2)c2c(c1)c(=O)n(C)c1c2cnn1C1CCCN(CCO)C1 (centres unmarked) [Example 278, 9-[1-[[6-chloro-2-(1-methyl-1,2,4-triazol-3-yl)-3-pyridyl]amino]ethyl]-3-[1-(2-hydroxyethyl)-3-piperidyl]-4,7-dimethyl-pyrazolo[3,4-c]isoquinolin-5-one]
> 6.00 | Cc1cc(C(C)Nc2ccc(Cl)nc2-c2cnn(C)c2)c2c(c1)c(=O)n(C)c1c2cnn1C1CCCN(C)C1 (centres unmarked) [Example 279, 9-[1-[[6-chloro-2-(1-methylpyrazol-4-yl)-3-pyridyl]amino]ethyl]-4,7-dimethyl-3-(1-methyl-3-piperidyl)pyrazolo[3,4-c]isoquinolin-5-one]
> 6.00 | Cc1cc(C(C)Nc2ccc(Cl)nc2-c2cnn(C)c2)c2c(c1)c(=O)n(C)c1c2cnn1C1CCCN(CCO)C1 (centres unmarked) [Example 280, 9-[1-[[6-chloro-2-(1-methylpyrazol-4-yl)-3-pyridyl]amino]ethyl]-3-[1-(2-hydroxyethyl)-3-piperidyl]-4,7-dimethyl-pyrazolo[3,4-c]isoquinolin-5-one]
> 6.00 | COC(=O)N1CCCC(n2ncc3c4c(C(C)Nc5ccc(Cl)nc5-c5cnn(C)c5)cc(C)cc4c(=O)n(C)c32)C1 (centres unmarked) [Example 281, methyl 3-[9-[1-[[6-chloro-2-(1-methylpyrazol-4-yl)-3-pyridyl]amino]ethyl]-4,7-dimethyl-5-oxo-pyrazolo[3,4-c]isoquinolin-3-yl]piperidine-1-carboxylate]
